Laboratory results as given in ChEMBL document CHEMBL5696441 (Nat Chem Biol, 2011).

Assays:
[1] = target: T1, TGF-beta receptor type-1 (Homo sapiens) (UniProt P36897); assay: Inhibition of TGFBR1 (unknown origin) assessed as remaining activity at 1 uM by Kinome scan method relative to control
T1 sequence (whole entry): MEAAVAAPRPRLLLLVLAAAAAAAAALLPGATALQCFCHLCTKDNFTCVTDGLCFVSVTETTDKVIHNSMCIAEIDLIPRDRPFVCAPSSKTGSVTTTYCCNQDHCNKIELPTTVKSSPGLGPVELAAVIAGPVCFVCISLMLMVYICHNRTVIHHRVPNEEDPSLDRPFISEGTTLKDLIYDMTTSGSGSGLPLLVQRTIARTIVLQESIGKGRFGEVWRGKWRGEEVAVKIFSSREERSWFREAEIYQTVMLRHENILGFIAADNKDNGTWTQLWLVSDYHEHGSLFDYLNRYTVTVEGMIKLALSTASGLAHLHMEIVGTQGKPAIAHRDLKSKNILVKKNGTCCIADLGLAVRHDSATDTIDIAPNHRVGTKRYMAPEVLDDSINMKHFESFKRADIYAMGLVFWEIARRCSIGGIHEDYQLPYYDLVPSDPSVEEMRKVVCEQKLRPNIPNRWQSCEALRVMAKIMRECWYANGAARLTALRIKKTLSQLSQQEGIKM

[2] = target: T2, Serine/threonine-protein kinase TAO3 (Homo sapiens) (UniProt Q9H2K8); assay: Inhibition of TAOK3 (unknown origin) assessed as remaining activity at 1 uM by Kinome scan method relative to control
T2 sequence (whole entry): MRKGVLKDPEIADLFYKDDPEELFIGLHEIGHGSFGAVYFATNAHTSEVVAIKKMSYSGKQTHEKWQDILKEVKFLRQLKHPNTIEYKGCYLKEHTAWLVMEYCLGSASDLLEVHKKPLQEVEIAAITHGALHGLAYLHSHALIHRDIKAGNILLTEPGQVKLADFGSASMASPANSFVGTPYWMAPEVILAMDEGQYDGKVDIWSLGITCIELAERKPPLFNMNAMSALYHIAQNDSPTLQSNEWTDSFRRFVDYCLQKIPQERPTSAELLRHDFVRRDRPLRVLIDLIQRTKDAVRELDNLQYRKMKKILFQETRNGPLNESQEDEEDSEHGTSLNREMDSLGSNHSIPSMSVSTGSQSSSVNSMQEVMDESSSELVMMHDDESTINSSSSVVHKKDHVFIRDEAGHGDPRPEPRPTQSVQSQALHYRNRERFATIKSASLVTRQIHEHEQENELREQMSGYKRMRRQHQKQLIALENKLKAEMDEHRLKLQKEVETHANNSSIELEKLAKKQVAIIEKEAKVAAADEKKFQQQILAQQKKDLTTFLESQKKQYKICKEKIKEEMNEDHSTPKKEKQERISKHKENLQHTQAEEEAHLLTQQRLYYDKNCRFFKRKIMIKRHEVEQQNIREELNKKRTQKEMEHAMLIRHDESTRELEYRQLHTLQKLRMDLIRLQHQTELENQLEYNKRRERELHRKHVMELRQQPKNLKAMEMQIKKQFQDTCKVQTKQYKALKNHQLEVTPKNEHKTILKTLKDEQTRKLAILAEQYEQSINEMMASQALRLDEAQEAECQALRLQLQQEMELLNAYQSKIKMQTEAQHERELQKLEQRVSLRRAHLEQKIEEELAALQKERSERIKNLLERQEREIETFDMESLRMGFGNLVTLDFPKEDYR

[3] = test system: Phosphatidylinositol 4,5-bisphosphate 3-kinase catalytic subunit alpha isoform (Homo sapiens), P42336 [H1047L]; assay: Inhibition of PIK3CA H1047L mutant (unknown origin) assessed as remaining activity at 1 uM by Kinome scan method relative to control
Chain of Phosphatidylinositol 4,5-bisphosphate 3-kinase catalytic subunit alpha isoform (Homo sapiens), P42336 [H1047L] (P42336 whole entry H1047L, canonical isoform): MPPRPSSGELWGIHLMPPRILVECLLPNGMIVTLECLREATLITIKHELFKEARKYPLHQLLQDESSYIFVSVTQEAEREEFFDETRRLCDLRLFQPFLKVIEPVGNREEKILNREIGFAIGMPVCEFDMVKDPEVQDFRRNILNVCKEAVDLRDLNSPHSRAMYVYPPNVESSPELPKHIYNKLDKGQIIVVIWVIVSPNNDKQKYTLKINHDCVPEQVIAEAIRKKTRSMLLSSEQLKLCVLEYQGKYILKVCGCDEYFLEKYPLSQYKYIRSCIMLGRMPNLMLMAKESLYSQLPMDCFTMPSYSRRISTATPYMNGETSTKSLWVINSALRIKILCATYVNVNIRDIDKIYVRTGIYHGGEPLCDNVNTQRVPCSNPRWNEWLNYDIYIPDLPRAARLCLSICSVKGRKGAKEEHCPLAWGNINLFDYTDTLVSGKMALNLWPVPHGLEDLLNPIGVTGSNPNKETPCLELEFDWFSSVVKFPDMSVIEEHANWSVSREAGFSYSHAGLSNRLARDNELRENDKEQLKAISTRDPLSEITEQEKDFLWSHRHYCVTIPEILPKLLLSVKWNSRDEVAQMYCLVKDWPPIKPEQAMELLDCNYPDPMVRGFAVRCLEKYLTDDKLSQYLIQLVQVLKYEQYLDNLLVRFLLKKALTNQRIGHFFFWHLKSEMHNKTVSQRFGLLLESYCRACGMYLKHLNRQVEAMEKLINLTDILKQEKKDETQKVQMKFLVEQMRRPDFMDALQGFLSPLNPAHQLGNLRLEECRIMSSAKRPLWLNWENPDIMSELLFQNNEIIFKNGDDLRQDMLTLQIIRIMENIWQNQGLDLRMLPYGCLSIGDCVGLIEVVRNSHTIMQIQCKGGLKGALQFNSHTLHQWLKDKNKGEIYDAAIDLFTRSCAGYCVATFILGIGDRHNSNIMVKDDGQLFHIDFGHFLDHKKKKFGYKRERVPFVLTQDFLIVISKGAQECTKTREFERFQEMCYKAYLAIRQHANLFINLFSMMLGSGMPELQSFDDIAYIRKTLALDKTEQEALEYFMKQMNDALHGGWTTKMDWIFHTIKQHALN

[4] = target: T3, Myosin light chain kinase (Homo sapiens) (UniProt Q32MK0); assay: Inhibition of MLCK (unknown origin) assessed as remaining activity at 1 uM by Kinome scan method relative to control
T3 sequence (whole entry): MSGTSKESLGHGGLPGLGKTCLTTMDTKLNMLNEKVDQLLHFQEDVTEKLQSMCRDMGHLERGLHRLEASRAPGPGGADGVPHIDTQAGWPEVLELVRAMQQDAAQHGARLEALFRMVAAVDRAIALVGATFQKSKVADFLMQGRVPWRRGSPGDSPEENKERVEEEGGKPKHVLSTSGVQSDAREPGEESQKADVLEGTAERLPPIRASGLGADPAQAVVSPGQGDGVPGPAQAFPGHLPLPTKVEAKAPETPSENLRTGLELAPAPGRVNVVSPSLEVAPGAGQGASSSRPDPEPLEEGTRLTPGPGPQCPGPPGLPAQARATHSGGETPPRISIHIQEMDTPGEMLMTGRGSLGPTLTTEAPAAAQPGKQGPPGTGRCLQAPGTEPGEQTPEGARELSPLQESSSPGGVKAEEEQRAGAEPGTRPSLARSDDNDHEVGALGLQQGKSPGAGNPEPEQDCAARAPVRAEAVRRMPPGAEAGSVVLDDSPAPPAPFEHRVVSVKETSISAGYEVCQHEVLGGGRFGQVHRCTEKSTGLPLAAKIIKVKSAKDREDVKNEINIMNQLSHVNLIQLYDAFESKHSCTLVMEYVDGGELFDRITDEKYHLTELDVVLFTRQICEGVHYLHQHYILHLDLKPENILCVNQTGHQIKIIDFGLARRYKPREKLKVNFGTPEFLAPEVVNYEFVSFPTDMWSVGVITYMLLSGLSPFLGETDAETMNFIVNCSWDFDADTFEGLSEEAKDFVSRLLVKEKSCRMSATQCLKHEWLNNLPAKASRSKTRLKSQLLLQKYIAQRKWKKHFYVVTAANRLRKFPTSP

[5] = target: T4, Homeodomain-interacting protein kinase 4 (Homo sapiens) (UniProt Q8NE63); assay: Inhibition of HIPK4 (unknown origin) assessed as remaining activity at 1 uM by Kinome scan method relative to control
T4 sequence (whole entry): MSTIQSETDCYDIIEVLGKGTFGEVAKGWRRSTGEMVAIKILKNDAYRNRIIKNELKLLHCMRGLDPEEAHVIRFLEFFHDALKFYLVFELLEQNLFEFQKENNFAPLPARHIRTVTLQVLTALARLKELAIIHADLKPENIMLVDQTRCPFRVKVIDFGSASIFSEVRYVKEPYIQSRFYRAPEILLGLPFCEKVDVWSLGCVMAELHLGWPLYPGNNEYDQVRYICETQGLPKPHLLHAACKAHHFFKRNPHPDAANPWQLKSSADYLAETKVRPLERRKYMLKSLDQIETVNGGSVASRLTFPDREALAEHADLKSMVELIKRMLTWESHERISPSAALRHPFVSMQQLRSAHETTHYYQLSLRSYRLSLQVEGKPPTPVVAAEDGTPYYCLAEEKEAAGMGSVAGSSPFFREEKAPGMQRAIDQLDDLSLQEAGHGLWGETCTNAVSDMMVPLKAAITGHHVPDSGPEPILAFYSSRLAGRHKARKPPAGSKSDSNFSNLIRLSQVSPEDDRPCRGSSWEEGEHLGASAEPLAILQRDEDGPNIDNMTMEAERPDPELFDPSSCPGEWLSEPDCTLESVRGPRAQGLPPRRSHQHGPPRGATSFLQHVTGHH

SMILES | Activity [1] | Activity [2] | Activity [3] | Activity [4] | Activity [5]
Nc1ccccc1Nc1ccc2c(c1)CCc1ccccc1C2=O | 90% | 99% | 84% | 85% | 97%
O=C1c2ccc(Nc3ccc(F)cc3F)cc2CCc2ccc(OC[C@H](O)CO)cc21 [Skepinone-L] | 100% | 100% | 95% | 100% | 100%
